Results published in patent publication US20100022589A1, “PYRIDINE-3-CARBOXAMIDE COMPOUNDS AND THEIR USE FOR INHIBITING 11-BETA-HYDROXYSTEROID DEHYDROGENASE” (priority 2006, published 2010).

Biological target: T1, human 11βHSD1 enzyme (Homo sapiens, UniProt P28845)
T1 construct: N terminal 6-His tagged full length human 11βHSD1 enzyme; 6-His (N); made in house
Experiment: 11βHSD1 competitive HTRF assay (conversion of cortisone to cortisol)
Format: biochemical
Settings: for activity in the 11βHSD1 assay: at 30 μM; for IC50: baculovirus expressed N terminal 6-His tagged full length human 11βHSD1, cortisone 160 nM, 25 minutes at 37° C.
Experimental: The conversion of cortisone to the active steroid cortisol by 11βHSD1 oxo-reductase activity, can be measured using a competitive homogeneous time resolved fluorescence assay (HTRF) (CisBio International, R&D, Administration and Europe Office, In Vitro Technologies—HTRF®/Bioassays BP 84175, 30204 Bagnols/Cèze Cedex, France. Cortisol bulk HTRF kit: Cat No. 62CORPEC).
The evaluation of compounds described herein was carried out using a baculovirus expressed N terminal 6-His tagged full length human 11βHSD1 enzyme(*1). The enzyme was purified from a detergent solublised cell lysate, using a copper chelate column. Inhibitors of 11βHSD1 reduce the conversion of cortisone to cortisol, which is identified by an increase in signal, in the above assay.
Compounds to be tested were dissolved in dimethyl sulphoxide (DMSO) to 10 mM and diluted further in assay buffer containing 10% DMSO to 10 fold the final assay concentration. Diluted compounds were then plated into black 384 well plates (Matrix, Hudson N.H., USA).
The assay was carried out in a total volume of 20 μl consisting of cortisone (Sigma, Poole, Dorset, UK, 160 nM), glucose-6-phosphate (Roche Diagnostics, 1 mM), NADPH (Roche Diagnostics, 100 μM), glucose-6-phosphate dehydrogenase (Roche Diagnostics, 12.5 μg/ml), EDTA (Sigma, Poole, Dorset, UK, 1 mM), assay buffer (K2HPO4/KH2PO4, 100 mM) pH 7.5, recombinant 11βHSD1 (1.5 μg/ml) plus test compound. The assay plates were incubated for 25 minutes at 37° C. after which time the reaction was stopped by the addition of 10 μl of 0.5 mM glycerrhetinic acid plus cortisol-XL665. 10 μl of anti-cortisol Cryptate was then added and the plates sealed and incubated for 6 hours at room temperature. Fluorescence at 665 nm and 620 nm was measured and the 665 nm:620 nm ratio calculated using an Envision plate reader.

T1 sequence (P28845 whole entry): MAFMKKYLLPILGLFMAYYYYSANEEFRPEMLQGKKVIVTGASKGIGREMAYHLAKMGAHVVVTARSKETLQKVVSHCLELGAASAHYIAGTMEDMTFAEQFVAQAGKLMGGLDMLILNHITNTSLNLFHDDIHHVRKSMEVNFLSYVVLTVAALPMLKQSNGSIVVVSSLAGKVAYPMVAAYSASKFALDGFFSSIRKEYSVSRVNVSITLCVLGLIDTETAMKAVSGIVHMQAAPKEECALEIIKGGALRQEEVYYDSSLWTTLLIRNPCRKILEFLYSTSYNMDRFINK

IC50 [nM]	SMILES	activity in the 11βHSD1 assay
	O=C(NC1CCCCC1)c1ccc(C(F)(F)F)nc1SCCc1ccccc1 [N-cyclohexyl-2-(phenethylsulfanyl)-6-trifluoromethylpyridine-3-carboxamide]	did not show activity
27	O=C(NC1CCCCC1)c1cccnc1SCCc1ccccc1 [Example 4, N-Cyclohexyl-2-phenethylsulfanyl-pyridine-3-carboxamide]	
890	O=C(NC1CCCCC1)c1cccnc1SCCc1ccccn1 [Example 3, N-Cyclohexyl-2-(2-pyridin-2-ylethylsulfanyl)pyridine-3-carboxamide]	
	O=C(O)c1ccccc1CCSc1ncccc1C(=O)NC1CCCCC1 [N-cyclohexyl-2-[2-(2-carboxyphenyl)ethyl)sulfanyl]pyridine-3-carboxamide]	did not show activity
